Patent US7312233B2, “Amide derivatives as ion-channel ligands and pharmaceutical compositions and methods of using the same” (Renovis, Inc., priority 2005, dated 2007)

target: T1, HsVR1 (Homo sapiens, UniProt Q8NER1); assay: Two-electrode voltage clamp recording (OpusXpress) of capsaicin induced VR1 current in Xenopus oocytes injected with HsVR1 RNA; assay type: cell-based; settings: 250 nM capsaicin induced VR1 current, n=5 oocytes, FIG. 1
T1 construct: expressed in transfected cells; host or cells: Xenopus oocytes injected with HsVR1 RNA
Experimental: Oocytes are prepared by surgically removing Xenopus ovaries obtained from NASCO. The oocytes are isolated by enzymatic dissociation using collagenase (Worthington, 2 mg/ml). Oocytes are then individually injected with HsVR1 RNA. Each oocyte receives 64 nl of RNA solution in water at a concentration of 0.5 μg/μl. Injected oocytes are stored in standard oocyte incubation solution, ND96, containing (in mM) 96 NaCl, 2 KCl, 1 MgCl2, 1.8 CaCl2 and 50 μg/ml Gentamicin at 16° C. […] Eight oocytes are placed in the recording chambers. Each oocyte is impaled by 2 glass electrodes having resistances of 0.5 to 1 MOhm when filled with a 3 M KCl solution. Electrode advancement and oocyte impalement are under software control (OpusXpress® 1.1 Molecular Devices Corporation). The solutions are prepared in 96 well plates and robotically pipetted into the oocyte recording chambers by an 8 channel pipettor. Test solution delivery to the oocytes during the experiment is also under software control. […] The standard test concentrations for the compounds tested here usually range from 0.3 to 2000 nM. Quantitative measurement of VR1 current block is done by calculating the area under the curve described by the inward current. […] These points are then plotted on a logarithmic scale and fitted by a Hill function. The IC50 is calculated from the resulting Hill fit.

T1 sequence (Q8NER1 whole entry): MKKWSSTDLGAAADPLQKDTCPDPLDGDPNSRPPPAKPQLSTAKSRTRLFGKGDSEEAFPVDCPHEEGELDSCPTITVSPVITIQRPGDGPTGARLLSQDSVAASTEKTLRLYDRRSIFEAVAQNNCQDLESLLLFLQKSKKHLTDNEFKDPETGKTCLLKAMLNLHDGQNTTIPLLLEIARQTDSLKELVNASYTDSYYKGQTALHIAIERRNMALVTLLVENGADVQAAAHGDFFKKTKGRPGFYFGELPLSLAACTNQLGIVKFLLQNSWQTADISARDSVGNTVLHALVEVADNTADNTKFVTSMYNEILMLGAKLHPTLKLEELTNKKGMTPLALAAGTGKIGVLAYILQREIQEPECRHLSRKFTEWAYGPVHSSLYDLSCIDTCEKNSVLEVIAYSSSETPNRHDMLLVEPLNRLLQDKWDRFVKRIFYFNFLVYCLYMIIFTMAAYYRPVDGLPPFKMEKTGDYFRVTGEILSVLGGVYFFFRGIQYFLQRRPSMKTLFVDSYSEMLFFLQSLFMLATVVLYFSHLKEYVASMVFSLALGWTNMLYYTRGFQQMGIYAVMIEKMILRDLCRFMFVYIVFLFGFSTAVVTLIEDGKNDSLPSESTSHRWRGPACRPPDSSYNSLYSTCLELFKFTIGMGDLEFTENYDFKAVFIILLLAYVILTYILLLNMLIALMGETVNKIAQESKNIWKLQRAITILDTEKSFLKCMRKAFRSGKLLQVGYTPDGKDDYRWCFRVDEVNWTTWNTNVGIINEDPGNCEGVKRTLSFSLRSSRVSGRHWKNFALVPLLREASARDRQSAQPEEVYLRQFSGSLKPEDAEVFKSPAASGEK

IC50 | Structure (SMILES)
178 ± 26 nM | Cc1nc2cc(NC(=O)c3ccc(C4CC4)cc3C)ccc2s1 [Compound 7, 4-cyclopropyl-2-methyl-N-(2-methylbenzo[d]thiazol-5-yl)benzamide]

same assay, conditions: +/- standard error measurement, FIG. 1 legend

IC50 | Structure (SMILES)
177 nM | Cc1nc2cc(NC(=O)c3ccc(C4CC4)cc3C)ccc2s1 [Compound 7, 4-cyclopropyl-2-methyl-N-(2-methylbenzo[d]thiazol-5-yl)benzamide]

target: T2, hVR1 (Homo sapiens, UniProt Q8NER1); assay: Calcium uptake assay (Fura2, Flex Station) in HEK 293 cells expressing hVR1; assay type: cell-based; settings: 0.3 μM compound, inhibition of agonist-induced calcium influx, 0.3 µM
T2 construct: expressed in transfected cells; host or cells: T-REx HEK 293 (Invitrogen), pcDNA5/TO vector
T2 sequence (Q8NER1 whole entry): as above

Structure (SMILES) | % Inhib. @ 0.3 μM
Cc1cc(C2CC2C(F)(F)F)ccc1C(=O)Nc1ccc2c(c1)OCCO2 (single isomer, unassigned) [Compound 8, N-(2,3-dihydrobenzo[b][1,4]dioxin-6-yl)-2-methyl-4-(2-(trifluoromethyl)cyclopropyl)benzamide] | + (compound exhibited 0-25% inhibition of calcium ion influx)
Cc1cc(C2CC2C(F)(F)F)ccc1C(=O)Nc1ccc2c(c1)OCCO2 (single isomer, unassigned) [Compound 13, N-(2,3-dihydrobenzo[b][1,4]dioxin-6-yl)-2-methyl-4-(2-(trifluoromethyl)cyclopropyl)benzamide] | +++ (compound exhibited 50-75% inhibition of calcium ion influx)
Cc1cc(C2CC2C(F)(F)F)ccc1C(=O)Nc1cnc2ccccc2c1 (single isomer, unassigned) [Compound 17, 2-methyl-N-(quinolin-3-yl)-4-(2-(trifluoromethyl)cyclopropyl)benzamide] | +++ (compound exhibited 50-75% inhibition of calcium ion influx)
Cc1cc(C2CC2C(F)(F)F)ccc1C(=O)Nc1cnc2ccccc2c1 (single isomer, unassigned) [Compound 18, 2-methyl-N-(quinolin-3-yl)-4-(2-(trifluoromethyl)cyclopropyl)benzamide] | +++ (compound exhibited 50-75% inhibition of calcium ion influx)
Cc1cc(C2CC2C(F)(F)F)ccc1C(=O)Nc1cnc2ccccc2c1 (single isomer, unassigned) [Compound 19, 2-methyl-N-(quinolin-3-yl)-4-(2-(trifluoromethyl)cyclopropyl)benzamide] | + (compound exhibited 0-25% inhibition of calcium ion influx)
Cc1cc(C2CC2C(F)(F)F)ccc1C(=O)Nc1cnc2ccccc2c1 (single isomer, unassigned) [Compound 20, 2-methyl-N-(quinolin-3-yl)-4-(2-(trifluoromethyl)cyclopropyl)benzamide] | ++ (compound exhibited 25-50% inhibition of calcium ion)

same assay, conditions: HEK293, 0.3 μM compound, inhibition of agonist-induced calcium influx, read-out: % Inhib. @ 0.3 μM

Structure (SMILES) | inhibition at 0.3 µM
COc1cccc(NC(=O)c2ccc(C3CC3)cc2C)c1 [Compound 1, 4-cyclopropyl-N-(3-methoxyphenyl)-2-methylbenzamide] | 50 to 75%
Cc1cc(C2CC2)ccc1C(=O)Nc1ccc(C(C)(C)C)cc1 [Compound 2, N-(4-tert-butylphenyl)-4-cyclopropyl-2-methylbenzamide] | 0 to 25%

Other lines, results leading:

inhibition at 0.3 µM | Structure (SMILES)
0 to 25% | Cc1cc(C2CC2C(F)(F)F)ccc1C(=O)Nc1cccc2c1CCCC2 (single isomer, unassigned) [Compound 9, 2-methyl-N-(5,6,7,8-tetrahydronaphthalen-1-yl)-4-(2-(trifluoromethyl)cyclopropyl)benzamide]
25 to 50% | COc1ccc(NC(=O)c2ccc(C3CC3C(F)(F)F)cc2C)cn1 (single isomer, unassigned) [Compound 10, N-(6-methoxypyridin-3-yl)-2-methyl-4-(2-(trifluoromethyl)cyclopropyl)benzamide]
> 75% | Cc1nc2cc(NC(=O)c3ccc(C4CC4C(F)(F)F)cc3C)ccc2s1 (single isomer, unassigned) [Compound 11, 2-methyl-N-(2-methylbenzo[d]thiazol-5-yl)-4-(2-(trifluoromethyl)cyclopropyl)benzamide]
> 75% | Cc1cc(C2CC2C(F)(F)F)ccc1C(=O)Nc1ccc2sc(CO)nc2c1 (single isomer, unassigned) [Compound 15]
25 to 50% | COc1cccc(NC(=O)c2ccc(C3CC3C(F)(F)F)cc2C)c1 (single isomer, unassigned) [Compound 16, N-(3-methoxyphenyl)-2-methyl-4-(2-(trifluoromethyl)cyclopropyl)benzamide]
50 to 75% | O=C(Nc1cnc2ccccc2c1)c1ccc(C2CC2(Cl)Cl)cc1 (centres unmarked) [Compound 3, 4-(2,2-dichlorocyclopropyl)-N-(quinolin-3-yl)benzamide]
> 75% | COc1cccc(NC(=O)c2ccc(C3CC3(Cl)Cl)cc2)c1 (centres unmarked) [Compound 4, 4-(2,2-dichlorocyclopropyl)-N-(3-methoxyphenyl)benzamide]
> 75% | Cc1cc(C2CC2)ccc1C(=O)Nc1cnc2ccccc2c1 [Compound 5, 4-cyclopropyl-2-methyl-N-(quinolin-3-yl)benzamide]
> 75% | Cc1nc2cc(NC(=O)c3ccc(C4CC4(Cl)Cl)cc3)ccc2s1 (centres unmarked) [Compound 6, 4-(2,2-dichlorocyclopropyl)-N-(2-methylbenzo[d]thiazol-5-yl)benzamide]
> 75% | Cc1nc2cc(NC(=O)c3ccc(C4CC4)cc3C)ccc2s1 [Compound 7, 4-cyclopropyl-2-methyl-N-(2-methylbenzo[d]thiazol-5-yl)benzamide]
